Assay results taken from PubChem BioAssay AID248 (DTP/NCI, 2004).
Where “and” joins values, the source holds several entries; their conditions need not be identical. Equal values may be shown once. Inconclusive results and toxic doses are left out. Rule as the data show it: active = T/C of 150% or more; inactive = T/C below 125%.

Test system: L1210 leukemia ip in BDF1 mice, survival T/C
Test: NCI In Vivo Anticancer Drug Screen. Data for tumor model L1210 Leukemia (intraperitoneal) in B6D2F1 (BDF1) mice
Settings: endpoint: mean survival time, higher = longer survival
Summary of the method: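 Value reflects the ratio of survival in compound-treated mice to survival in vehicle-treated controls, with both groups carrying the same transplanted tumor.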

[1] = dose: 100.0 mg/kg/injection, schedule: Q01DX001 (ip), vehicle: carboxymethylcellulose (CMC)
[2] = dose: 200.0 mg/kg/injection, schedule: Q01DX001 (ip), vehicle: carboxymethylcellulose (CMC)
[3] = dose: 400.0 mg/kg/injection, schedule: Q01DX001 (ip), vehicle: carboxymethylcellulose (CMC)
[4] = dose: 100.0 mg/kg/injection, schedule: Q04DX003 (ip), vehicle: Klucel (hydroxypropylcellulose) (HPC)
[5] = dose: 200.0 mg/kg/injection, schedule: Q04DX003 (ip), vehicle: Klucel (hydroxypropylcellulose) (HPC)
[6] = dose: 400.0 mg/kg/injection, schedule: Q04DX003 (ip), vehicle: Klucel (hydroxypropylcellulose) (HPC)
[7] = dose: 100.0 mg/kg/injection, schedule: Q01DX001 (ip), vehicle: saline
[8] = dose: 200.0 mg/kg/injection, schedule: Q01DX001 (ip), vehicle: saline
[9] = dose: 400.0 mg/kg/injection, schedule: Q01DX001 (ip), vehicle: saline
[10] = dose: 50.0 mg/kg/injection, schedule: Q01DX009 (ip), vehicle: saline
[11] = dose: 100.0 mg/kg/injection, schedule: Q01DX001 (ip), vehicle: saline with Tween-80
[12] = dose: 200.0 mg/kg/injection, schedule: Q01DX001 (ip), vehicle: saline with Tween-80
[13] = dose: 400.0 mg/kg/injection, schedule: Q01DX001 (ip), vehicle: saline with Tween-80
[14] = dose: 100.0 mg/kg/injection, schedule: Q04DX002 (ip), vehicle: saline with Tween-80
[15] = dose: 200.0 mg/kg/injection, schedule: Q04DX002 (ip), vehicle: saline with Tween-80
[16] = dose: 100.0 mg/kg/injection, schedule: Q04DX003 (ip), vehicle: saline with Tween-80
[17] = dose: 200.0 mg/kg/injection, schedule: Q04DX003 (ip), vehicle: saline with Tween-80
[18] = dose: 400.0 mg/kg/injection, schedule: Q04DX003 (ip), vehicle: saline with Tween-80
[19] = dose: 100.0 mg/kg/injection, schedule: Q01DX009 (ip), vehicle: Klucel (hydroxypropylcellulose) (HPC)
[20] = dose: 200.0 mg/kg/injection, schedule: Q01DX009 (ip), vehicle: Klucel (hydroxypropylcellulose) (HPC)
[21] = dose: 100.0 mg/kg/injection, schedule: Q04DX002 (ip), vehicle: Klucel (hydroxypropylcellulose) (HPC)
[22] = dose: 200.0 mg/kg/injection, schedule: Q04DX002 (ip), vehicle: Klucel (hydroxypropylcellulose) (HPC)
[23] = dose: 400.0 mg/kg/injection, schedule: Q04DX002 (ip), vehicle: Klucel (hydroxypropylcellulose) (HPC)

Measured: T/C

O=C1NC(=O)C(=Cc2cc(Br)ccc2[N+](=O)[O-])C(=O)N1
inactive: [1] 91 % of control | [2] 104 % of control | [3] 91 % of control

Cc1nnc(NC(=O)NCCCl)s1
inactive: [4] 100 % of control | [5] 107 % of control | [6] 118 % of control

CC(=O)OC1CCCc2c(O)c3c(c(O)c21)C(=O)c1ccccc1C3=O (centres undefined)
inactive: [7] 93 % of control | [8] 93 % of control | [9] 91 % of control

COc1ccc2c(c1)c1c(C)c3cnccc3c(C)c1n2CCOC(C)=O
inactive: dose: 12.5 mg/kg/injection, schedule: Q01DX009 (ip), vehicle: saline 107 % of control | dose: 25.0 mg/kg/injection, schedule: Q01DX009 (ip), vehicle: saline 100 % of control | [10] 112 % of control | [11] 88 % of control | [12] 100 % of control | [13] 120 % of control

Cc1cc(C)n(C(=O)Nc2ccccc2)n1
inactive: [14] 105 % of control | [15] 100 % of control

O=C1N(O)C2(CCCC(O)C2O)C(=O)C12CCCCC2 (centres undefined)
inactive: dose: 75.0 mg/kg/injection, schedule: Q01DX001 (ip), vehicle: saline 103 % of control | dose: 150.0 mg/kg/injection, schedule: Q01DX001 (ip), vehicle: saline 96 % of control | dose: 300.0 mg/kg/injection, schedule: Q01DX001 (ip), vehicle: saline 96 % of control

CN1CCC(OC(=O)C(C)(O)C#Cc2ccccc2)CC1 (centres undefined)
inactive: dose: 50.0 mg/kg/injection, schedule: Q01DX001 (ip), vehicle: Klucel (hydroxypropylcellulose) (HPC) 102 % of control | dose: 100.0 mg/kg/injection, schedule: Q01DX001 (ip), vehicle: Klucel (hydroxypropylcellulose) (HPC) 97 % of control | dose: 200.0 mg/kg/injection, schedule: Q01DX001 (ip), vehicle: Klucel (hydroxypropylcellulose) (HPC) 100 % of control

CCCCC(C)O[Si](C)C1(C)CCCCC1 (centres undefined)
inactive: [16] 94 % of control | [17] 95 % of control | [18] 106 % of control

CN1C(=O)NC2ON=C(c3ccccc3)C2C1=O (centres undefined)
inactive: [19] 103 % of control | [4] 100 % of control | [20] 104 % of control | [5] 103 % of control | dose: 400.0 mg/kg/injection, schedule: Q01DX009 (ip), vehicle: Klucel (hydroxypropylcellulose) (HPC) 104 % of control | [6] 100 % of control

Br/C(=C(/Br)c1ccccc1)c1ccccc1
inactive: dose: 50.0 mg/kg/injection, schedule: Q01DX009 (ip), vehicle: Klucel (hydroxypropylcellulose) (HPC) 105 % of control | [19] 91 % of control | [20] 102 % of control

CCCCP(=O)(CCCC)CCP(=O)(CCCC)CCCC
inactive: [16] 88 % of control | [17] 97 % of control

O=C(O)/C=C/C=C/c1ccccc1
inactive: [16] 97 % of control | [17] 92 % of control | [18] 106 % of control

OCC1SCCS1
inactive: [14] 101 % of control | [15] 97 % of control | dose: 400.0 mg/kg/injection, schedule: Q04DX002 (ip), vehicle: saline with Tween-80 90 % of control

c1ccc(-c2nnn(-c3ccccc3)n2)cc1
inactive: [16] 94 % of control | [17] 93 % of control | [18] 98 % of control

C[C@@]1(C(=O)O)CC2C=CC1C2 (some centres undefined)
inactive: [21] 96 % of control | [22] 96 % of control | [23] 93 % of control

O=C(O)C1CSC(c2ccccc2)N1 (centres undefined)
inactive: dose: 100.0 mg/kg/injection, schedule: Q01DX001 (ip), vehicle: other 105 % of control | dose: 176.0 mg/kg/injection, schedule: Q01DX001 (ip), vehicle: other 109 % of control and 91 % of control | dose: 200.0 mg/kg/injection, schedule: Q01DX001 (ip), vehicle: other 102 % of control | dose: 267.0 mg/kg/injection, schedule: Q01DX001 (ip), vehicle: other 96 % of control and 90 % of control | dose: 600.0 mg/kg/injection, schedule: Q01DX001 (ip), vehicle: other 101 % of control and 90 % of control

CC(=O)Nc1ncnc(NC(C)=O)c1N=O
inactive: [7] 93 % of control | [8] 102 % of control

OC(c1cccc2ccccc12)c1c2ccccc2cc2ccccc12 (centres undefined)
inactive: [10] 96 % of control | dose: 100.0 mg/kg/injection, schedule: Q01DX005 (ip), vehicle: saline 98 % of control | dose: 100.0 mg/kg/injection, schedule: Q01DX009 (ip), vehicle: saline 102 % of control and 104 % of control | dose: 100.0 mg/kg/injection, schedule: Q04DX002 (ip), vehicle: saline 93 % of control | dose: 200.0 mg/kg/injection, schedule: Q01DX005 (ip), vehicle: saline 103 % of control | dose: 200.0 mg/kg/injection, schedule: Q01DX009 (ip), vehicle: saline 100 % of control | dose: 200.0 mg/kg/injection, schedule: Q04DX002 (ip), vehicle: saline 97 % of control | dose: 400.0 mg/kg/injection, schedule: Q01DX005 (ip), vehicle: saline 106 % of control | dose: 400.0 mg/kg/injection, schedule: Q01DX009 (ip), vehicle: saline 108 % of control and 91 % of control | dose: 400.0 mg/kg/injection, schedule: Q04DX002 (ip), vehicle: saline 97 % of control

CC(C)C1SC(=S)NC1=O (centres undefined)
inactive: [7] 88 % of control | [8] 95 % of control

CCC(/C=N/N=C(N)N)OC (centres undefined)
inactive: dose: 2.0 mg/kg/injection, schedule: Q01DX Z (oral), vehicle: saline 103 % of control | dose: 4.0 mg/kg/injection, schedule: Q01DX Z (oral), vehicle: saline 101 % of control | dose: 8.0 mg/kg/injection, schedule: Q01DX Z (oral), vehicle: saline 106 % of control | dose: 16.0 mg/kg/injection, schedule: Q01DX Z (oral), vehicle: saline 100 % of control | dose: 32.0 mg/kg/injection, schedule: Q01DX Z (oral), vehicle: saline 110 % of control | dose: 64.0 mg/kg/injection, schedule: Q01DX Z (oral), vehicle: saline 100 % of control | dose: 128.0 mg/kg/injection, schedule: Q01DX Z (oral), vehicle: saline 104 % of control and 113 % of control | dose: 256.0 mg/kg/injection, schedule: Q01DX Z (oral), vehicle: saline 98 % of control and 115 % of control

CCCCN(CC)C(=S)S[Te](SC(=S)N(CC)CCCC)(SC(=S)N(CC)CCCC)SC(=S)N(CC)CCCC
inactive: [1] 104 % of control | [2] 101 % of control | [3] 89 % of control

CC(=O)CCc1ccc(Cl)cc1
inactive: dose: 50.0 mg/kg/injection, schedule: Q01DX001 (ip), vehicle: saline 101 % of control | [7] 107 % of control | [21] 105 % of control | [8] 107 % of control | [22] 105 % of control | [9] 106 % of control | [23] 105 % of control

COC(=O)c1ccc(N=Nc2ncc(CC(NC(C)=O)C(=O)OC)[nH]2)cc1 (centres undefined)
inactive: [11] 93 % of control | [12] 96 % of control | [13] 100 % of control
